From patent US20240366612A1, “COMPOUNDS AND METHODS FOR MODULATING NUCLEIC ACID SPLICING” (REMIX THERAPEUTICS INC., priority 2021, published 2024) come the findings set out here.

The test system of one data set is HTT mRNA. The data set can be described thus: Splicing RT-qPCR assay, HTT canonical (CJ) and alternative (AJ) junction mRNA. It is filed as cell-based. The following applies: Homo sapiens, A673 or K562 cells, 24 hours treatment. An outline of the steps: (§1)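 Compound-treated A673 or K562 cells (11-point 3-fold dilution, top dose 10 uM final, DMSO ≤0.25%) were incubated for 24 h at 37° C. Lysates underwent one-step RT-qPCR for canonical and alternative-exon junction isoforms. Normalization used PPIA for A673 and GAPDH or GUSB for K562.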
On the technique in general: Real-time PCR tracks product formation cycle by cycle.

A further data set concerns MYB mRNA. The data set can be described thus: Splicing RT-qPCR assay, MYB canonical (CJ) and alternative (AJ) junction mRNA. It is filed as cell-based. The following applies: Homo sapiens, A673 or K562 cells, 24 hours treatment. An outline of the steps:
as §1

Another data set relates to HTT CJ mRNA. The data set can be described thus: Gene panel canonical junction qPCR assay, HTT. It counts as cell-based. The following applies: Homo sapiens, larger gene panel, read-out: HTT IC50 (decrease in CJ mRNA levels). The gist of the method: (§2)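 A673 or K562 cells treated 24 h with 11-point 3-fold dilutions (top 10 µM, ≤0.25% DMSO) at 37 °C. Canonical exon-junction mRNA measured by probe-based RT-qPCR, normalized to GAPDH, GUSB or PPIA and DMSO (2^−ΔΔCt), converted to percent response over a fixed ΔCt window; IC50 from 4-parameter fit.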

For a further data set, the system named is SMN2 CJ mRNA. The data set can be described thus: Gene panel canonical junction qPCR assay, SMN2. It counts as cell-based. As to conditions: Homo sapiens, larger gene panel, read-out: SMN2 IC50 (decrease in CJ mRNA levels). An outline of the steps:
as §2

For another data set, the system named is Target C CJ mRNA. The data set can be described thus: Gene panel canonical junction qPCR assay, Target C. It is filed as cell-based. As to conditions: Homo sapiens, larger gene panel, read-out: Target C IC50 (decrease in CJ mRNA levels). The gist of the method: as §2
Data set [1] in a line: Cell Titer Glo 2.0 cell viability assay. The following applies: human, K562 cells. On the technique in general: ATP-based viability assays read luminescence as a measure of living cells.

As to `Cc1cn2cc(-c3nc4cnn(C5CCNCC5)c(=O)c4s3)nc(C)c2n1` [Compound 812, 2-(2,8-dimethylimidazo[1,2-a]pyrazin-6-yl)-6-(piperidin-4-yl)thiazolo[4,5-d]pyridazin-7(6H)-one], the half-maximal inhibitory concentration (IC50) in the data set with HTT mRNA (decrease in CJ mRNA), with MYB mRNA (decrease in CJ mRNA), in the data set with HTT CJ mRNA, with SMN2 CJ mRNA and with Target C CJ mRNA was more than 10 µM each time. For the same compound, the AC50 with HTT mRNA (increase in AJ mRNA) and with MYB mRNA (increase in AJ mRNA) was more than 10 µM throughout. In data set [1], the concentration for 50% growth inhibition (GI50) at 72 h is 0.1 to 1 µM.

As a reminder, the IC50 is the point on the concentration scale where inhibition reaches its midpoint. For orientation: AC50 means the concentration at which the activity in the assay is half-maximal. As a reminder, the GI50 is the concentration that inhibits growth by half. Read a high GI50 as lower sensitivity of the cells.
